# From paper PMC9940855, “First-in-Class Dual Hybrid Carbonic Anhydrase Inhibitors and Transient Receptor Potential Vanilloid 1 Agonists Revert Oxaliplatin-Induced Neuropathy” (Journal of Medicinal Chemistry, 2023)
# Entries after “also recorded” stand apart in the source; their conditions may differ.
# Tests used:
# [1] = molecular target: T1, hCA IX (Homo sapiens, UniProt Q16790); assay type: biochemical
# T1 construct: made in house
# [2] = molecular target: T2, TRPV1 receptor (Homo sapiens, UniProt Q8NER1); assay: TRPV1 assay, Fluo-4NW fluorescence in SH-SY5Y-TRPV1 cells; assay type: cell-based; details: read-out: EC50 on TRPV1 receptor activity (agonism)
# T2 construct: expressed in transfected cells
# Description: SH-SY5Y-TRPV1 cells (kindly provided by Johanna Lilja and Anna Forsby (University of Stockholm, Stockholm, Sweden))[40] were cultured in 96 wells. Upon 90% confluence had been reached, the cells were loaded with 5 μM Fluo-4NW for 1 h at 37 °C. […] Briefly, after measuring the basal fluorescence of the plate (four cycles), testing compounds were added to the plate, and the fluorescence was measured for additional 10 cycles; thereafter, 10 μM capsaicin was added with a microinjector and the fluorescence was monitored for an additional 10 cycles.
# [3] = molecular target: hCA I (Homo sapiens, UniProt P00915); details: read-out: KI hCA I; stopped-flow CO2 hydrase assay; mean from three different assays, errors ±5–10%
# [4] = molecular target: hCA II (Homo sapiens, UniProt P00918); details: for Ki: read-out: KI hCA II, stopped-flow CO2 hydrase assay, mean from three different assays, errors ±5–10%
# [5] = molecular target: hCA IV (Homo sapiens, UniProt P22748); details: read-out: KI hCA IV; stopped-flow CO2 hydrase assay; mean from three different assays, errors ±5–10%
# [6] = molecular target: hCA VII (Homo sapiens, UniProt P43166); details: read-out: KI hCA VII; stopped-flow CO2 hydrase assay; mean from three different assays, errors ±5–10%
# [7] = molecular target: hCA XII (Homo sapiens, UniProt O43570); details: read-out: KI hCA XII; stopped-flow CO2 hydrase assay; mean from three different assays, errors ±5–10%
# [8] = test system: oxaliplatin-induced neuropathic pain (cold allodynia); assay: Cold plate test in mouse model of oxaliplatin-induced neuropathic pain; assay type: in vivo; details: p.o., acute; for pain-relieving effect (licking latency, Cold plate test), in words: 10–100 mg/kg; for time of peak pain-relieving effect post-administration: up to 100 mg/kg
# Chain of hCA VII (P43166 whole entry): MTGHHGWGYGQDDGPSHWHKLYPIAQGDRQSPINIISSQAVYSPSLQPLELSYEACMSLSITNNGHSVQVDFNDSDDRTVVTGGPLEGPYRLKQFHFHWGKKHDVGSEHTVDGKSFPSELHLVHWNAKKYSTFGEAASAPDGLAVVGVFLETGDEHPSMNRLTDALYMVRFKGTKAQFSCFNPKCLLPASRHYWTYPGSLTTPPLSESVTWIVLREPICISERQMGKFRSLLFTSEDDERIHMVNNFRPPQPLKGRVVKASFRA
# Chain of hCA I (P00915 whole entry): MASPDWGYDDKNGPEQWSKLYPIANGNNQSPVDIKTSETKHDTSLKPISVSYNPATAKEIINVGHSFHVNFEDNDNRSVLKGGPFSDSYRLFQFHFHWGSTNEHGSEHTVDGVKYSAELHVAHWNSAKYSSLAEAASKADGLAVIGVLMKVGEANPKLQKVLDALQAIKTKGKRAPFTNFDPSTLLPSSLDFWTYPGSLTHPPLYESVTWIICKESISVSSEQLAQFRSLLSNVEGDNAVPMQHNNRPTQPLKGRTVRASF
# T2 sequence (Q8NER1 whole entry): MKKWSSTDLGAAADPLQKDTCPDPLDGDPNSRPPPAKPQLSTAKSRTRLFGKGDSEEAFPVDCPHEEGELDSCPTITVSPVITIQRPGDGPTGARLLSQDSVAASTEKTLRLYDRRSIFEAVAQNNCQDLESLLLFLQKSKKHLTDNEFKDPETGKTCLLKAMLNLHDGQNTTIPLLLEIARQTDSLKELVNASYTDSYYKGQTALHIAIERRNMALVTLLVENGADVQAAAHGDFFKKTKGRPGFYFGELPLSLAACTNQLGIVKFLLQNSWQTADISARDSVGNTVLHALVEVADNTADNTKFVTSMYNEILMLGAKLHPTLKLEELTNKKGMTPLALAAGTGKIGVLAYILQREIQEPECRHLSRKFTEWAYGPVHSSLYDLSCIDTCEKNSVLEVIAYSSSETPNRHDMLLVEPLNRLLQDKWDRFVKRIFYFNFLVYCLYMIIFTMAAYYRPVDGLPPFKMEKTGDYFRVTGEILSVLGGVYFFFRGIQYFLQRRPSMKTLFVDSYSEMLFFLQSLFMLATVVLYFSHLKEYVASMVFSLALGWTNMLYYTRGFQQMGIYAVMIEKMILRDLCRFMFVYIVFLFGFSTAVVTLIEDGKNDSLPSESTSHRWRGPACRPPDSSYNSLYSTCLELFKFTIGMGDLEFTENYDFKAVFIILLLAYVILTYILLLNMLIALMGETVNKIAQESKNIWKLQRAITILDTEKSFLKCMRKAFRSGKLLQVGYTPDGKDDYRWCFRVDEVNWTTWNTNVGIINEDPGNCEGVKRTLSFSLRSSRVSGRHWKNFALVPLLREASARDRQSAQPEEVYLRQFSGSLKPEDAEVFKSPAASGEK
# Chain of hCA XII (O43570 25-354): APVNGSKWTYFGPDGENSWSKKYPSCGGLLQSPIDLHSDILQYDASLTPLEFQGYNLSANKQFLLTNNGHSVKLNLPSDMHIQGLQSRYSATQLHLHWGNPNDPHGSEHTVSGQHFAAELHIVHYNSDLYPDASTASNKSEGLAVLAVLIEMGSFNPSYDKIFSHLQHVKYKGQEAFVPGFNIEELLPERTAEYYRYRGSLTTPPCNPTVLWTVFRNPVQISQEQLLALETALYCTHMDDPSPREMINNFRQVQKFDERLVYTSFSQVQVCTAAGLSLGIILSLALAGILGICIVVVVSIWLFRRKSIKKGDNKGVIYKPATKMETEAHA
# Chain of hCA IV (P22748 19-312): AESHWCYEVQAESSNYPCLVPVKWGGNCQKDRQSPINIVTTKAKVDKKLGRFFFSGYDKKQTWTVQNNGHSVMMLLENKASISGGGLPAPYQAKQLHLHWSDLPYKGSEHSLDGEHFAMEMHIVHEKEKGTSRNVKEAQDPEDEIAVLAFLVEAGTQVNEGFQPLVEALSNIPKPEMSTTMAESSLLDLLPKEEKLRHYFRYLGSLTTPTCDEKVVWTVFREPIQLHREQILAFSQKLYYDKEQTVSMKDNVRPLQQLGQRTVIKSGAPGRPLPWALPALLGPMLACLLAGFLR
Ki [1],EC50 [2],Ki [3],Ki [4],Ki [5],Ki [6],Ki [7],fold higher efficacy in inhibiting CA II over (R)-12a ([4]; ratio of Ki),Structure (SMILES),"pain-relieving effect (licking latency, Cold plate test), in words ([8]; day 15)",time of peak pain-relieving effect post-administration ([8]; Cold plate test),"pain-relieving effect (licking latency, Cold plate test), in words ([8]; day 15, listed as (R)-43a)",time at which the effect was suppressed ([8]; Cold plate test)
192 nM,> 100000 nM,72.2 nM,50.2 nM,3560 nM,9.4 nM,6.7 nM,–,"NS(=O)(=O)c1ccc(N2CC[C@@H](NC(=O)Nc3ccc4c(c3)OCCO4)C2)nc1 [15a, (R)-6-(3-(3-(2,3-Dihydrobenzo[b][1,4]dioxin-6-yl)ureido)pyrrolidin-1-yl)pyridine-3-sulfonamide]",–,–,–,–
36.1 nM,> 100000 nM,73.5 nM,287 nM,5080 nM,68.7 nM,72.2 nM,–,"COc1ccccc1NC(=O)N[C@@H]1CCN(c2ccc(S(N)(=O)=O)cn2)C1 [18a, (R)-6-(3-(3-(2-Methoxyphenyl)ureido)pyrrolidin-1-yl)pyridine-3-sulfonamide]",–,–,–,–
378 nM,> 100000 nM,31.3 nM,14.9 nM,3090 nM,–,8.3 nM,–,"NS(=O)(=O)c1ccc(N2CC[C@@H](NC(=S)Nc3ccccc3F)C2)nc1 [21a, (R)-6-(3-(3-(2-Fluorophenyl)thioureido)pyrrolidin-1-yl)pyridine-3-sulfonamide]",–,–,–,–
16.8 nM,8000 nM,74.8 nM,6.7 nM,471 nM,175 nM,409 nM,10.4 fold,"NS(=O)(=O)c1ccc(NC(=S)N[C@@H]2CCN(c3cccc([N+](=O)[O-])n3)C2)cc1 [37a, (R)-4-(3-(1-(6-Nitropyridin-2-yl)pyrrolidin-3-yl)thioureido)benzenesulfonamide]",more potent and effective than (R)-12a,30 min,–,–
162 nM,44200 nM,78.5 nM,8.6 nM,238 nM,83.6 nM,238 nM,–,"NS(=O)(=O)c1cccc(NC(=S)N[C@@H]2CCN(c3cccc([N+](=O)[O-])n3)C2)c1 [38a, (R)-3-(3-(1-(6-Nitropyridin-2-yl)pyrrolidin-3-yl)thioureido)benzenesulfonamide]",–,–,–,–
93.6 nM,> 100000 nM,68.3 nM,7.5 nM,2290 nM,164 nM,83.7 nM,–,"NS(=O)(=O)c1ccc(NC(=O)N[C@@H]2CCN(c3cccc([N+](=O)[O-])n3)C2)cc1 [43a, (R)-4-(3-(1-(6-Nitropyridin-2-yl)pyrrolidin-3-yl)ureido)benzenesulfonamide]",–,45 min,dose-dependent effectiveness; also recorded: moderate and shorter relieving outcomes,75 min
